Measurements taken from publication PMC8479016, “High-throughput screening and evaluation of repurposed drugs targeting the SARS-CoV-2 main protease” (Signal Transduction and Targeted Therapy, 2021).
“And” between values parts separate entries of the source, which are not always exact repeats. Equal values may be shown once. “Also recorded” adds a separate entry of the source. Read-outs that look alike come from different tables or passages of the source.

How the values were obtained:
SARS-CoV-2 M^pro [1] = molecular target: T1, SARS-CoV-2 M^pro (Severe acute respiratory syndrome coronavirus 2, UniProt P0DTD1); assay: biochemical; type: binding
SARS-CoV-2 M^pro [2] = molecular target: T1, SARS-CoV-2 M^pro; assay: biochemical; type: biochemical; conditions: for inhibitory efficacy on the enzymatic activity of M^pro (inhibition rate): 20 μM drug, 1.5 µM M^pro, 10 μM substrate, 3~6 h
SARS-CoV-2 [3] = assay: Antiviral activity assay in infected Vero E6 cells, viral RNA copies by qRT-PCR; type: cell-based; conditions: Vero E6, MOI 0.01, 48 h after infection
SARS-CoV-2 [4] = tested on: SARS-CoV-2; design: method as in earlier work; conditions: cellular experiment; cited from earlier work
[5] = SPR, steady-state affinity model, 25℃, read-out: KD (equilibrium dissociation constant)

Structure (SMILES)	Kd (SARS-CoV-2 M^pro [1]; [5])	inhibitory efficacy on the enzymatic activity of M^pro (inhibition rate) (SARS-CoV-2 M^pro [2])	also measured
Cc1onc(-c2ccccc2Cl)c1C(=O)N[C@@H]1C(=O)N2[C@@H]1SC(C)(C)[C@@H]2C(=O)O [Cloxacillin]	≤ 55 µM and 54.6 µM	moderate inhibition	–
C[C@@H]1CCO[C@H]2Cn3cc(C(=O)NCc4ccc(F)cc4F)c(=O)c(O)c3C(=O)N12 [Dolutegravir]	≤ 55 µM and 18.1 µM	moderate inhibition	–
CC(C)(O)CNc1nc(Nc2ccnc(C(F)(F)F)c2)nc(-c2cccc(C(F)(F)F)n2)n1 [Enasidenib]	≤ 55 µM and 9.31 µM	–	–
CN1CCN(c2ccc(C(=O)Nc3n[nH]c4ccc(Cc5cc(F)cc(F)c5)cc34)c(NC3CCOCC3)c2)CC1 [Entrectinib]	≤ 55 µM and 0.68 µM	outstanding inhibitory efficacy	EC50 (SARS-CoV-2 [3]; Severe acute respiratory syndrome coronavirus 2, Vero C1008): 0.198 µM; IC50 (SARS-CoV-2 M^pro [2]; 200 nM M^pro, 5-fold gradient 0.032-20 µM, 3 h, read-out: IC50): 10.6 µM
CC(C)C[C@H](NC(=O)OCc1ccccc1)C(=O)N[C@@H](CC1CCNC1=O)C(O)S(=O)(=O)O (stereo partly drawn) [GC376]	–	–	EC50 (SARS-CoV-2 [3]): 0.074 µM
CC(C)(C)NC(=O)[C@@H]1C[C@@H]2CCCC[C@@H]2CN1C[C@@H](O)[C@H](Cc1ccccc1)NC(=O)[C@H](CC(N)=O)NC(=O)c1ccc2ccccc2n1 [Saquinavir]	–	–	Kd (SARS-CoV-2 M^pro [1]): 2.96 ± 2 µM; Kd (SARS-CoV-2 M^pro [1]; read-out: KD (equilibrium dissociation constant)): ≤ 55 µM
CC(C)CN(C[C@@H](O)[C@H](Cc1ccccc1)NC(=O)O[C@H]1CO[C@H]2OCC[C@H]21)S(=O)(=O)c1ccc(N)cc1 [darunavir]	–	either no or only weak inhibitory effects	–
Cc1cccc(C)c1OCC(=O)N[C@@H](Cc1ccccc1)[C@@H](O)C[C@H](Cc1ccccc1)NC(=O)[C@H](C(C)C)N1CCCNC1=O [lopinavir]	–	either no or only weak inhibitory effects	–
Cc1c(O)cccc1C(=O)N[C@@H](CSc1ccccc1)[C@H](O)CN1C[C@H]2CCCC[C@H]2C[C@H]1C(=O)NC(C)(C)C [nelfinavir]	–	either no or only weak inhibitory effects; also recorded: failed to block the enzymatic activity	EC50 (SARS-CoV-2 [4]): 1.13 µM; Kd (SARS-CoV-2 M^pro [1]): 2.36 µM; IC50 (SARS-CoV-2 M^pro [2]): 41.5 µM
